Measured values as given in ChEMBL document CHEMBL1938305, “Antioxidative oligostilbenes from Caragana sinica” (Bioorg Med Chem Lett, 2012).

Key:
[1] = test system: Radical scavenging activity; test: Antioxidant activity assessed as DPPH free radical scavenging activity after 30 mins by microplate reader assay; format: functional
[2] = Antioxidant activity assessed as inhibition of lipid peroxidation; format: functional

Which IC50 [1] does the source give for Oc1ccc([C@@H]2c3c(O)cc(O)cc3[C@H]3[C@H](c4ccc(O)cc4)c4c(O)cc(O)cc4[C@@H]23)cc1 (relative stereo) [PALLIDOL] here?
Its IC50 is 165 µM.

What about the IC50 [2] of the same compound?
The IC50 was 128 µM.

With Oc1ccc([C@H]2Oc3cc(O)cc([C@@H]4[C@H](c5cc(O)cc(O)c5)[C@@H](c5ccc(O)cc5)O[C@H]4c4ccc(O)cc4)c3[C@@H]2c2cc(O)c3c(c2)[C@@H](c2cc(O)cc(O)c2)[C@H](c2ccc(O)cc2)O3)cc1 [KOBOPHENOL A] as the compound, how does the IC50 [1] read?
Its IC50 is over 200 µM.

And the IC50 [2]?
The IC50 was over 200 µM.

Which results are given for Oc1ccc(/C=C/c2cc(O)cc(O)c2)cc1 [RESVERATROL]?
IC50 [1]: 92.1 µM; IC50 [2]: 30.1 µM

Which IC50 [2] does the source give for Cc1c(C)c2c(c(C)c1O)CC[C@@](C)(CCC[C@H](C)CCC[C@H](C)CCCC(C)C)O2 [ALPHA-TOCOPHEROL] here?
Its IC50 is 12.5 µM.

What does the source list for COc1cc(O)cc2c1C(=O)C(O)(Cc1ccc(O)cc1)O2 (stereo not drawn) [CARPUSIN]?
IC50 [1]: > 200 µM; IC50 [2]: > 200 µM

With Oc1ccc([C@H]2c3c(O)cc(O)cc3[C@H]3c4c(O)cc(O)cc4[C@@H]2[C@H]3c2ccc(O)cc2)cc1 as the compound, how does the IC50 [1] read?
The IC50 was over 200 µM.

And the IC50 [2]?
The IC50 was over 200 µM.

With Oc1ccc([C@H]2Oc3cc(O)cc4c3[C@@H]2c2cc(O)cc3c2[C@@H](c2cc(O)cc5c2[C@@H]4[C@H](c2ccc(O)cc2)O5)[C@H](c2ccc(O)cc2)O3)cc1 (relative stereo) as the compound, how does the IC50 [1] read?
Its IC50 is over 200 µM.

What about the IC50 [2] of the same compound?
Its IC50 is over 200 µM.

What does the source list for Oc1ccc(C2[C@H]3c4cc(O)cc(O)c4[C@@H](c4ccc(O)cc4)[C@@H]2c2cc(O)cc(O)c23)cc1 (stereo partly drawn)?
IC50 [1]: > 200 µM; IC50 [2]: > 200 µM

For O=C1O[C@H]([C@@H](O)CO)C(O)=C1O [ASCORBIC ACID], which IC50 [1] is on record?
The IC50 was 57.2 µM.

For O=C(c1ccc(O)cc1)[C@H]1c2cc(O)cc(O)c2[C@@H](c2ccc(O)cc2)[C@H]1c1cc(O)cc(O)c1 [CARAPHENOL B], which IC50 [1] is on record?
Its IC50 is 73.9 µM.

And the IC50 [2]?
Its IC50 is 43.1 µM.
